Laboratory results: US10294202B2, “Pyrrolidinones as herbicides” (FMC Corporation, priority 2013, dated 2019)

Legend:
wheat = test: Test A pre-/postemergence herbicide test; format: in vivo, Triticum aestivum; conditions: Postemergence
Procedure, shortened: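 Both application timings used compounds in a non-phytotoxic solvent plus surfactant. Pre-emergence: soil sprayed directly after seeding into loam/sand. Post-emergence: foliage of 2–10 cm seedlings (1–2 leaves) sprayed. Injury rated ~10 days later, 0–100.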

blackgrass = test: Test C pre-/postemergence herbicide test; format: in vivo, Alopecurus myosuroides
Procedure, shortened: (§1)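 Herbicidal effect was judged by eye 13 to 15 days after treatment in the greenhouse, using a 0–100 scale against controls. Chemicals in a non-phytotoxic solvent with surfactant were sprayed onto planted loam/sand soil or onto plants 2 to 18 cm tall in a peat-based growing medium.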

ryegrass, Italian = test: Test C pre-/postemergence herbicide test; format: in vivo, Lolium multiflorum
Procedure, shortened: as §1

galium = test: Test C pre-/postemergence herbicide test; format: in vivo, Galium aparine
Procedure, shortened: as §1

corn = test: Test C pre-/postemergence herbicide test; format: in vivo, Zea mays
Procedure, shortened: as §1

crabgrass, large = test: Test C pre-/postemergence herbicide test; format: in vivo, Digitaria sanguinalis
Procedure, shortened: as §1

johnsongrass = test: Test C pre-/postemergence herbicide test; format: in vivo, Sorghum halepense
Procedure, shortened: as §1

ragweed = test: Test C pre-/postemergence herbicide test; format: in vivo, Ambrosia elatior
Procedure, shortened: as §1

soybean = test: Test C pre-/postemergence herbicide test; format: in vivo, Glycine max
Procedure, shortened: as §1

oilseed rape = test: Test C pre-/postemergence herbicide test; format: in vivo, Brassica napus
Procedure, shortened: as §1

waterhemp = test: Test C pre-/postemergence herbicide test; format: in vivo, Amaranthus rudis
Procedure, shortened: as §1

oat, wild = test: Test C pre-/postemergence herbicide test; format: in vivo, Avena fatua; conditions: Postemergence
Procedure, shortened: as §1

[1] = 125 g ai/ha, visual rating on 0 to 100 scale (0 no effect, 100 complete control), approx. 10 days
[2] = Postemergence, 31 g ai/ha, scale 0 to 100 (0 no effect, 100 complete control)
[3] = Postemergence, 62 g ai/ha, scale 0 (no effect) to 100 (complete control)
[4] = Postemergence, 125 g ai/ha, scale 0 to 100 (0 no effect, 100 complete control)
[5] = Postemergence, 250 g ai/ha, scale 0 to 100 (0 no effect, 100 complete control)
[6] = Preemergence, 31 g ai/ha, scale 0 to 100, 0 is no effect and 100 is complete control
[7] = Preemergence, 62 g ai/ha, scale 0 to 100 (0 no effect, 100 complete control)
[8] = Preemergence, 125 g ai/ha, scale 0 to 100
[9] = 31 g ai/ha, scale 0 to 100 (0 no effect, 100 complete control)
[10] = 62 g ai/ha, scale 0 (no effect) to 100 (complete control)
[11] = 125 g ai/ha, scale 0 to 100 (0 no effect, 100 complete control)
[12] = 250 g ai/ha, scale 0 to 100 (0 no effect, 100 complete control)
[13] = Preemergence, 31 g ai/ha, scale 0 to 100

## O=C1NCC(c2cccc(OC(F)F)c2)C1C(=O)Nc1ccccc1F (centres unmarked) [Compound 323]
wheat; [1]
  Plant response rating, Wheat: 40
wheat; 500 g ai/ha, 0 to 100 scale (0 no effect, 100 complete control)
  Plant response rating, Wheat: 80
blackgrass; [2]
  Plant response rating, Blackgrass: 0
blackgrass; [3]
  Plant response rating, Blackgrass: 0
blackgrass; [4]
  Plant response rating, Blackgrass: 0
blackgrass; [5]
  Plant response rating, Blackgrass: 15
blackgrass; [6]
  Blackgrass plant response rating: 0
blackgrass; [7]
  Blackgrass plant response rating: 0
blackgrass; [8]
  Plant response rating, Blackgrass: 45
blackgrass; Preemergence, 250 g ai/ha
  Plant response rating (scale of 0 to 100), Blackgrass: 85
ryegrass, Italian; [2]
  Plant response rating, Ryegrass, Italian: 0
ryegrass, Italian; [3]
  Plant response rating, Ryegrass, Italian: 0
ryegrass, Italian; [4]
  Plant response rating, Ryegrass, Italian: 0
ryegrass, Italian; [5]
  Plant response rating, Ryegrass, Italian: 5
ryegrass, Italian; [7]
  Ryegrass, Italian plant response rating: 10
ryegrass, Italian; [8]
  Plant response rating, Ryegrass, Italian: 0
galium; [6]
  Galium plant response rating: 0
galium; [7]
  Galium plant response rating: 0
galium; [8]
  Plant response rating, Galium: 85
galium; Preemergence, 250 g ai/ha
  Plant response rating (scale of 0 to 100), Galium: 85
corn; [2]
  Plant response rating, Corn: 0
corn; [3]
  Plant response rating, Corn: 0
corn; [4]
  Plant response rating, Corn: 5
corn; [5]
  Plant response rating, Corn: 10
corn; [6]
  Corn plant response rating: 0
corn; [7]
  Corn plant response rating: 0
corn; [8]
  Plant response rating, Corn: 10
corn; Preemergence, 250 g ai/ha
  Plant response rating (scale of 0 to 100), Corn: 75
crabgrass, large; [2]
  Plant response rating, Crabgrass, Large: 0
crabgrass, large; [3]
  Plant response rating, Crabgrass, Large: 40
crabgrass, large; [4]
  Plant response rating, Crabgrass, Large: 70
crabgrass, large; [5]
  Plant response rating, Crabgrass, Large: 80
crabgrass, large; [6]
  Crabgrass, Large plant response rating: 95
crabgrass, large; [7]
  Crabgrass, Large plant response rating: 98
crabgrass, large; [8]
  Plant response rating, Crabgrass, Large: 98
crabgrass, large; Preemergence, 250 g ai/ha
  Plant response rating (scale of 0 to 100), Crabgrass, Large: 100
johnsongrass; [2]
  Plant response rating, Johnsongrass: 0
johnsongrass; [3]
  Plant response rating, Johnsongrass: 0
johnsongrass; [4]
  Plant response rating, Johnsongrass: 0
johnsongrass; [5]
  Plant response rating, Johnsongrass: 10
johnsongrass; [6]
  Johnsongrass plant response rating: 0
johnsongrass; [7]
  Johnsongrass plant response rating: 0
johnsongrass; [8]
  Plant response rating, Johnsongrass: 45
johnsongrass; Preemergence, 250 g ai/ha
  Plant response rating (scale of 0 to 100), Johnsongrass: 60
ragweed; [2]
  Plant response rating, Ragweed: 0
ragweed; [3]
  Plant response rating, Ragweed: 0
ragweed; [4]
  Plant response rating, Ragweed: 15
ragweed; [5]
  Plant response rating, Ragweed: 20
ragweed; [7]
  Ragweed plant response rating: 10
ragweed; [8]
  Plant response rating, Ragweed: 40
soybean; [2]
  Plant response rating, Soybean: 0
soybean; [3]
  Plant response rating, Soybean: 0
soybean; [4]
  Plant response rating, Soybean: 0
soybean; [5]
  Plant response rating, Soybean: 0
soybean; [7]
  Soybean plant response rating: 0
soybean; [8]
  Plant response rating, Soybean: 0
Oilseed rape; [2]
  Plant response rating, Oilseed Rape: 0
Oilseed rape; [3]
  Plant response rating, Oilseed Rape: 0
Oilseed rape; [4]
  Plant response rating, Oilseed Rape: 0
Oilseed rape; [5]
  Plant response rating, Oilseed Rape: 0
Oilseed rape; [6]
  Oilseed Rape plant response rating: 0
Oilseed rape; [7]
  Oilseed Rape plant response rating: 10
Oilseed rape; [8]
  Plant response rating, Oilseed Rape: 70
Oilseed rape; Preemergence, 250 g ai/ha
  Plant response rating (scale of 0 to 100), Oilseed Rape: 85
waterhemp; [2]
  Plant response rating, Waterhemp: 0
waterhemp; [3]
  Plant response rating, Waterhemp: 0
waterhemp; [4]
  Plant response rating, Waterhemp: 0
waterhemp; [5]
  Plant response rating, Waterhemp: 20
waterhemp; [7]
  Waterhemp plant response rating: 50
waterhemp; [8]
  Plant response rating, Waterhemp: 60
oat, wild; [9]
  Plant response rating, Oat, Wild: 0
oat, wild; [10]
  Plant response rating, Oat, Wild: 0
oat, wild; [11]
  Plant response rating, Oat, Wild: 0
oat, wild; [12]
  Plant response rating, Oat, Wild: 0

## O=C1NCC(c2ccc(F)c(F)c2)C1C(=O)Nc1ccc(F)c(F)c1F (centres unmarked) [Compound 346]
wheat; [1]
  Plant response rating, Wheat: 0
blackgrass; [2]
  Plant response rating, Blackgrass: 0
blackgrass; [3]
  Plant response rating, Blackgrass: 0
blackgrass; [4]
  Plant response rating, Blackgrass: 0
blackgrass; [5]
  Plant response rating, Blackgrass: 5
blackgrass; [7]
  Blackgrass plant response rating: 60
blackgrass; [8]
  Plant response rating, Blackgrass: 75
blackgrass; Preemergence, 250 g ai/ha
  Plant response rating (scale of 0 to 100), Blackgrass: 85
blackgrass; [13]
  Plant response rating, Blackgrass: 20
ryegrass, Italian; [2]
  Plant response rating, Ryegrass, Italian: 0
ryegrass, Italian; [3]
  Plant response rating, Ryegrass, Italian: 0
ryegrass, Italian; [4]
  Plant response rating, Ryegrass, Italian: 0
ryegrass, Italian; [5]
  Plant response rating, Ryegrass, Italian: 0
ryegrass, Italian; [7]
  Ryegrass, Italian plant response rating: 10
ryegrass, Italian; [8]
  Plant response rating, Ryegrass, Italian: 5
ryegrass, Italian; [13]
  Plant response rating, Ryegrass, Italian: 0
galium; [2]
  Plant response rating, Galium: 30
galium; [3]
  Plant response rating, Galium: 25
galium; [4]
  Plant response rating, Galium: 40
galium; [5]
  Plant response rating, Galium: 70
galium; [7]
  Galium plant response rating: 20
galium; [8]
  Plant response rating, Galium: 90
galium; Preemergence, 250 g ai/ha
  Plant response rating (scale of 0 to 100), Galium: 90
galium; [13]
  Plant response rating, Galium: 10
corn; [2]
  Plant response rating, Corn: 0
corn; [3]
  Plant response rating, Corn: 0
corn; [4]
  Plant response rating, Corn: 0
corn; [5]
  Plant response rating, Corn: 0
corn; [7]
  Corn plant response rating: 0
corn; [8]
  Plant response rating, Corn: 0
corn; Preemergence, 250 g ai/ha
  Plant response rating (scale of 0 to 100), Corn: 5
corn; [13]
  Plant response rating, Corn: 0
crabgrass, large; [2]
  Plant response rating, Crabgrass, Large: 0
crabgrass, large; [3]
  Plant response rating, Crabgrass, Large: 25
crabgrass, large; [4]
  Plant response rating, Crabgrass, Large: 60
crabgrass, large; [5]
  Plant response rating, Crabgrass, Large: 75
crabgrass, large; [7]
  Crabgrass, Large plant response rating: 95
crabgrass, large; [8]
  Plant response rating, Crabgrass, Large: 98
crabgrass, large; Preemergence, 250 g ai/ha
  Plant response rating (scale of 0 to 100), Crabgrass, Large: 100
crabgrass, large; [13]
  Plant response rating, Crabgrass, Large: 95
johnsongrass; [2]
  Plant response rating, Johnsongrass: 100
johnsongrass; [3]
  Plant response rating, Johnsongrass: 0
johnsongrass; [4]
  Plant response rating, Johnsongrass: 0
johnsongrass; [5]
  Plant response rating, Johnsongrass: 0
johnsongrass; [7]
  Johnsongrass plant response rating: 0
johnsongrass; [8]
  Plant response rating, Johnsongrass: 20
johnsongrass; Preemergence, 250 g ai/ha
  Plant response rating (scale of 0 to 100), Johnsongrass: 60
johnsongrass; [13]
  Plant response rating, Johnsongrass: 0
ragweed; [2]
  Plant response rating, Ragweed: 0
ragweed; [3]
  Plant response rating, Ragweed: 0
ragweed; [4]
  Plant response rating, Ragweed: 0
ragweed; [5]
  Plant response rating, Ragweed: 20
ragweed; [7]
  Ragweed plant response rating: 35
ragweed; [8]
  Plant response rating, Ragweed: 35
ragweed; [13]
  Plant response rating, Ragweed: 50
soybean; [2]
  Plant response rating, Soybean: 0
soybean; [3]
  Plant response rating, Soybean: 5
soybean; [4]
  Plant response rating, Soybean: 0
soybean; [5]
  Plant response rating, Soybean: 5
soybean; [7]
  Soybean plant response rating: 0
soybean; [8]
  Plant response rating, Soybean: 0
soybean; [13]
  Plant response rating, Soybean: 0
Oilseed rape; [2]
  Plant response rating, Oilseed Rape: 0
Oilseed rape; [3]
  Plant response rating, Oilseed Rape: 0
Oilseed rape; [4]
  Plant response rating, Oilseed Rape: 0
Oilseed rape; [5]
  Plant response rating, Oilseed Rape: 0
Oilseed rape; [7]
  Oilseed Rape plant response rating: 0
Oilseed rape; [8]
  Plant response rating, Oilseed Rape: 50
Oilseed rape; Preemergence, 250 g ai/ha
  Plant response rating (scale of 0 to 100), Oilseed Rape: 60
Oilseed rape; [13]
  Plant response rating, Oilseed Rape: 0
waterhemp; [2]
  Plant response rating, Waterhemp: 0
waterhemp; [3]
  Plant response rating, Waterhemp: 0
waterhemp; [4]
  Plant response rating, Waterhemp: 15
waterhemp; [5]
  Plant response rating, Waterhemp: 40
waterhemp; [7]
  Waterhemp plant response rating: 25
waterhemp; [8]
  Plant response rating, Waterhemp: 10
waterhemp; [13]
  Plant response rating, Waterhemp: 75
oat, wild; [9]
  Plant response rating, Oat, Wild: 0
oat, wild; [10]
  Plant response rating, Oat, Wild: 0
oat, wild; [11]
  Plant response rating, Oat, Wild: 0
oat, wild; [12]
  Plant response rating, Oat, Wild: 0
